Numbered stars: 1 amine (or outer) side, 2 acyl side, 3 side chain; on linkers, the order of the positions; unused ones are H or OH. Square brackets hold non-standard residues; d marks the D form. Peptide text beside a SMILES is read from it. dAla(N-(6-guanidinohexyl)) = C[C@@H](NCCCCCCNC(=N)N)C(=O)O; X1 = C[C@@H](C(=O)[*:2])N(CCCCCCN)[*:1]; X2 = C[C@H](C(=O)[*:2])N(CCCCCCN)[*:1]; 2Nal = N[C@@H](Cc1ccc2ccccc2c1)C(=O)O; X5 = C[C@H](C(=O)[*:2])N(CCCCCN)[*:1]; Gly(N-2-aminoethyl) = NCCNCC(=O)O; Nspe = C[C@H](NCC(=O)O)c1ccccc1

One assay deals with C-X-C chemokine receptor type 4 (Homo sapiens, UniProt P61073). As to the kind of experiment: Inhibition of CXCR4 receptor (unknown origin).
C-X-C chemokine receptor type 4, sequence (P61073 whole entry): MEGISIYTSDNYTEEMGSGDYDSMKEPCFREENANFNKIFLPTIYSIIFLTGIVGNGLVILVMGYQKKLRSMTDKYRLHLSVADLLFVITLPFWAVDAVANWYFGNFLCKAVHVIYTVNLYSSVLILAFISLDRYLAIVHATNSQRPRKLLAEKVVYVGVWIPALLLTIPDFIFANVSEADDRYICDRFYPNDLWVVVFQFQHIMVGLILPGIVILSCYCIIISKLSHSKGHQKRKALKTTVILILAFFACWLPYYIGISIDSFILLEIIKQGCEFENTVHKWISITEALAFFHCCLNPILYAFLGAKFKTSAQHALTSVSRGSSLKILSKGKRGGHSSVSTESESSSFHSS
Settings: not given
For orientation: IC50 means the point on the concentration scale where inhibition reaches its midpoint. With `C[C@H]1C(=O)N[C@@H](CCCNC(=N)N)C(=O)N[C@@H](Cc2ccc3ccccc3c2)C(=O)NCC(=O)N[C@H](Cc2ccc(O)cc2)C(=O)N1CCCCCCN` (cyclo([2Nal]G[dY][X1]R)), the 50% inhibitory concentration (IC50) was determined as 94000 nM.
`C[C@@H]1C(=O)N[C@@H](CCCNC(=N)N)C(=O)N[C@@H](Cc2ccc3ccccc3c2)C(=O)NCC(=O)N[C@H](Cc2ccc(O)cc2)C(=O)N1CCCCCCN` (cyclo([2Nal]G[dY][X2]R)) came in with a half-maximal inhibitory concentration (IC50) of 300 nM.
On the same count and under the same terms, next, `C[C@@H]1C(=O)N[C@@H](CCCNC(=N)N)C(=O)N[C@@H](Cc2ccc3ccccc3c2)C(=O)NCC(=O)N[C@H](Cc2ccc(O)cc2)C(=O)N1CCCCCN` (cyclo([2Nal]G[dY][X5]R)): 1600 nM; `C[C@@H]1C(=O)N[C@@H](CCCNC(=N)N)C(=O)N[C@@H](Cc2ccc3ccccc3c2)C(=O)NCC(=O)N[C@H](Cc2ccc(O)cc2)C(=O)N1CCCCCCNC(=N)N` (cyclo([dY][dAla(N-(6-guanidinohexyl))]R[2Nal]G)): 40 nM.

In a further assay the test system is Human immunodeficiency virus 1. As to the kind of experiment: Antiviral activity against HIV-1. The format is functional, organism-based.
Settings: not given
`C[C@H]1C(=O)N[C@@H](CCCNC(=N)N)C(=O)N[C@@H](Cc2ccc3ccccc3c2)C(=O)NCC(=O)N[C@H](Cc2ccc(O)cc2)C(=O)N1CCCCCCN` (cyclo([2Nal]G[dY][X1]R)) registered an EC50 of 979000 nM.
Regarding `C[C@@H]1C(=O)N[C@@H](CCCNC(=N)N)C(=O)N[C@@H](Cc2ccc3ccccc3c2)C(=O)NCC(=O)N[C@H](Cc2ccc(O)cc2)C(=O)N1CCCCCCN` (cyclo([2Nal]G[dY][X2]R)), the EC50 was found to be 53000 nM.
`C[C@@H]1C(=O)N[C@@H](CCCNC(=N)N)C(=O)N[C@@H](Cc2ccc3ccccc3c2)C(=O)NCC(=O)N[C@H](Cc2ccc(O)cc2)C(=O)N1CCCCCCNC(=N)N` (cyclo([dY][dAla(N-(6-guanidinohexyl))]R[2Nal]G)) showed an EC50 of 29000 nM.

In the next assay the test system is Plasmodium falciparum. As to the kind of experiment: Antiplasmodial activity against Plasmodium falciparum 3D7 assessed as inhibition of parasite growth.
Settings: not given
The format is functional, organism-based.
Consider `CN(C)c1ccc(C(=O)N(CC(=O)NCc2ccccc2)Cc2ccc(C(=O)NO)cc2)cc1`, for which the IC50 came to 9 nM.
On the same count and under the same terms, in the case of `Cc1ccccc1C(=O)N(CC(=O)NC(C)(C)C)Cc1ccc(C(=O)NO)cc1` it was 110 nM.
Still for that read-out and setting: next, `COc1ccccc1C(=O)N(CC(=O)NC(C)(C)C)Cc1ccc(C(=O)NO)cc1`: 250 nM.
The same measure, in the same setting: in the case of `CC(C)c1ccc(C(=O)N(CC(=O)NCc2ccccc2)Cc2ccc(C(=O)NO)cc2)cc1` it was 5 nM.
Take `Cc1cc(C)cc(C(=O)N(CC(=O)NCc2ccc(F)cc2)Cc2ccc(C(=O)NO)cc2)c1`: the IC50 is 80 nM.
In the case of `Cc1cccc(CNC(=O)CN(Cc2ccc(C(=O)NO)cc2)C(=O)c2cc(C)cc(C)c2)c1`, the IC50 was determined as 120 nM.
With `CC(C)c1ccc(C(=O)N(CC(=O)NC2CCCCC2)c2ccc(C(=O)NO)cc2)cc1`, the IC50 turned out to be 570 nM.
Regarding `CN(C)c1ccc(C(=O)N(Cc2ccc(C(=O)NO)cc2)C(C)(C)C(=O)NC2CCCCC2)cc1`, the IC50 was 90 nM.
As to `Cc1cc(C)cc(C(=O)N(CC(=O)NC2CCCCC2)c2ccc(C(=O)NO)cc2)c1`, the IC50 amounted to 77700 nM.
In the case of `CNC(=O)CN(Cc1ccc(C(=O)NO)cc1)C(=O)c1ccccc1C`, the IC50 was 70 nM.
Still for that read-out and setting: in the case of `Cc1ccc(CNC(=O)CN(Cc2ccc(C(=O)NO)cc2)C(=O)c2cc(C)cc(C)c2)cc1` it was 42 nM.
Same read-out and setting: next, `Cc1cc(C)cc(C(=O)N(CC(=O)NCc2ccc(Cl)cc2)Cc2ccc(C(=O)NO)cc2)c1`: 90 nM; `COc1ccc(CNC(=O)CN(Cc2ccc(C(=O)NO)cc2)C(=O)c2cc(C)cc(C)c2)cc1`: 33 nM.
For `Cc1cc(C)cc(C(=O)N(CC(=O)NCc2ccc(C(C)(C)C)cc2)Cc2ccc(C(=O)NO)cc2)c1`, the IC50 is 110 nM.
As to `CNC(=O)CN(Cc1ccc(C(=O)NO)cc1)C(=O)c1cc(C)cc(C)c1`, the IC50 was 50 nM.
On the same count and under the same terms, next, `Cc1cc(C)cc(CNC(=O)CN(Cc2ccc(C(=O)NO)cc2)C(=O)c2cc(C)cc(C)c2)c1`: 70 nM; `CN(C)c1ccc(C(=O)N(Cc2ccc(C(=O)NO)cc2)C(C(=O)NC2CCCCC2)c2ccccc2)cc1` (stereo unspecified): 390 nM.
On the same count and under the same terms, in the case of `Cc1cc(C)cc(C(=O)N(CC(=O)NCc2cccnc2)Cc2ccc(C(=O)NO)cc2)c1` it was 70 nM; in that of `CC(C)(C)c1ccc(C(=O)N(CC(=O)NCc2ccccc2)Cc2ccc(C(=O)NO)cc2)cc1`, 8 nM; in that of `Cc1cc(C)cc(C(=O)N(CC(=O)NCc2ccccc2)Cc2ccc(C(=O)NO)cc2)c1`, 37 nM.

For the next assay, the system named is Leishmania amazonensis. Nature of the assay: Antileishmanial activity against Leishmania amazonensis promastigotes assessed as inhibition of parasite growth at 10 uM incubated for 24 hrs relative to control. In kind it is functional. Further details: scale not given: the % may be the effect or the level left.
Settings: not given
In the case of `CCCCN(C(C)=O)C(C(=O)NCS(=O)(=O)c1ccc(C)cc1)c1ccccc1` (stereo unspecified), the Activity was 66.83%.

Another assay deals with Leishmania amazonensis. As to the kind of experiment: Antileishmanial activity against Leishmania amazonensis promastigotes assessed as inhibition of parasite growth at 10 uM incubated for 48 hrs relative to control. The format is functional. Also on record: scale not given: the % may be the effect or the level left.
Settings: not given
On to `CCCCN(C(C)=O)C(C(=O)NCS(=O)(=O)c1ccc(C)cc1)c1ccccc1` (stereo unspecified), for which the Activity is recorded as 87.87%.

A further assay relates to Leishmania mexicana. Nature of the assay: Antileishmanial activity against Leishmania mexicana promastigotes. The format is functional. Conditions: read-out: ED50 (the source's name).
In the case of `C[C@@H](c1ccccc1)N(CC(N)=O)C(=O)CN(C(=O)CN(CCN)C(=O)CN(C(=O)CN(C(=O)CN(CCN)C(=O)CN(C(=O)CN(C(=O)CN(CCN)C(=O)CN(C(=O)CN(C(=O)CNCCN)[C@@H](C)c1ccccc1)[C@@H](C)c1ccccc1)[C@@H](C)c1ccccc1)[C@@H](C)c1ccccc1)[C@@H](C)c1ccccc1)[C@@H](C)c1ccccc1)[C@@H](C)c1ccccc1` (H-[Gly(N-2-aminoethyl)][Nspe][Nspe][Gly(N-2-aminoethyl)][Nspe][Nspe][Gly(N-2-aminoethyl)][Nspe][Nspe][Gly(N-2-aminoethyl)][Nspe][Nspe]-NH2), the EC50 was found to be 7000 nM.

The next assay concerns Leishmania mexicana. As to the kind of experiment: Antileishmanial activity against Leishmania mexicana amastigotes. In kind it is functional. Particulars: read-out: ED50 (the source's name).
As for `C[C@@H](c1ccccc1)N(CC(N)=O)C(=O)CN(C(=O)CN(CCN)C(=O)CN(C(=O)CN(C(=O)CN(CCN)C(=O)CN(C(=O)CN(C(=O)CN(CCN)C(=O)CN(C(=O)CN(C(=O)CNCCN)[C@@H](C)c1ccccc1)[C@@H](C)c1ccccc1)[C@@H](C)c1ccccc1)[C@@H](C)c1ccccc1)[C@@H](C)c1ccccc1)[C@@H](C)c1ccccc1)[C@@H](C)c1ccccc1` (H-[Gly(N-2-aminoethyl)][Nspe][Nspe][Gly(N-2-aminoethyl)][Nspe][Nspe][Gly(N-2-aminoethyl)][Nspe][Nspe][Gly(N-2-aminoethyl)][Nspe][Nspe]-NH2), the EC50 was determined as 17000 nM.

These data come from ChEMBL document CHEMBL6074660, “Recent advances in peptoids as promising antimicrobial agents to target diverse microbial species” (Eur J Med Chem, 2024).
